Measurements taken from article PMC6337650 (Molecules, 2018).

Tests used:
[1] = tested on: BEL-7402 cells; experiment: MTT antiproliferative assay, BEL-7402; assay type: cell-based, human; details: Homo sapiens, Bel-7402, 48 h, MTT, mean ± SD, n=3; for inhibition at 100 µM: read-out: % Growth Inhibition at 100 μM BEL-7402
Description: (§1) The antiproliferative activity of the target compounds against a normal L02 cell line and the three different human cancer cell lines viz. colorectal (HCT-116), liver (BEL-7402) and liver (HepG2) were evaluated using a standard MTT-based colorimetric assay. All cell lines were obtained from the Key Laboratory of Natural Resources and Functional Molecules of the Changbai Mountain (Yanbian University, Jilin, China) and maintained in Dulbecco’s modified Eagle’s medium (DMEM) and RPMI Media 1640 (RPMI1640), supplemented with 10% fetal bovine serum (FBS) at 37 °C in a humidified atmosphere containing 5% CO2.
(§2) Cells were plated in 96-well plates at appropriate densities to ensure exponential growth throughout the experimental period (9 × 10^3 cells per well) and then allowed to adhere for 24 h. Cells were then treated for 48 h with four serial concentrations (1, 10, 50 and 100 µM) of each compound. 5-fluorouracil (5-FU) was used as a positive control. After 48 h of incubation, 10 µL of MTT solution was added to each well to a final concentration of 2 mg/mL. Plates were then incubated for a further 4 h. After incubation, the MTT solution was removed and 150 µL of DMSO was added to each well for coloration. The plates were shaken vigorously for 10 min at room temperature to ensure complete solubilization. The optical density (OD) was read on a microplate reader (ELx800, BioTek, Highland Park, Winooski, VT, USA) at a wavelength of 492 nm and the data were subsequently analyzed. The percentage of cell growth inhibition was calculated from the following equation: Inhibitory rate (%) = [(1 − (ODtreated-ODblank)/(ODcontrol-ODblank)] × 100.(1)

[2] = tested on: HCT-116 cells; experiment: MTT antiproliferative assay, HCT-116; assay type: cell-based, human; details: Homo sapiens, HCT-116, 48 h, MTT, mean ± SD, n=3; for inhibition at 100 µM: read-out: % Growth Inhibition at 100 μM HCT-116
Description: as §1, §2

[3] = tested on: HepG2 cells; experiment: MTT antiproliferative assay, HepG2; assay type: cell-based, human; details: Homo sapiens, HepG2, 48 h, MTT, mean ± SD, n=3; for inhibition at 100 µM: read-out: % Growth Inhibition at 100 μM HepG2
Description: as §1, §2

| Compound | inhibition at 100 µM [1] [%] | inhibition at 100 µM [2] [%] | melting point [°C] | inhibition at 100 µM [3] [%] | IC50 [1] [µM] | IC50 [2] [µM] | IC50 [3] [µM] |
| --- | --- | --- | --- | --- | --- | --- | --- |
| C[C@@]12CC[C@@H]3[C@@](CC[C@H]4[C@@]3(C)CCC[C@@]4(C)C(=O)OCC(=O)Nc3ccccc3F)(CC1=O)C2 [Compound 4e, 2-((2-fluorophenyl)amino)-2-oxoethyl(4R,4aS,6aR,9S,11aR,11bS)-4,9,11b-trimethyl-8-oxotetradecahydro-6a,9-methanocyclohepta[a]naphthalene-4-carboxylate] | 38.7 ± 1.52 | 27.9 ± 0.44 | 168 to 169 | < 10 | – | – | – |
| COC(=O)C(NC(=O)C1(C)CCCC2(C)C3CCC4(C)CC3(CCC12)CC4=O)C(C)C [Compound 3c, Methyl((4R,4aS,6aR,9S,11aR,11bS)-4,9,11b-trimethyl-8-oxotetradecahydro-6a,9-methanocyclohepta[a]naphthalene-4-carbonyl)-L-valinate] | 66.6 ± 1.9 | 54.7 ± 0.59 | – | 23.9 ± 0.85 | – | – | – |
| COC(=O)C(Cc1c[nH]c2ccccc12)NC(=O)C1(C)CCCC2(C)C3CCC4(C)CC3(CCC12)CC4=O [Compound 3d, Methyl((4R,4aS,6aR,9S,11aR,11bS)-4,9,11b-trimethyl-8-oxotetradecahydro-6a,9-methanocyclohepta[a]naphthalene-4-carbonyl)-L-tryptophanate] | 35.8 ± 2.37 | 19.7 ± 1.11 | 165 to 166 | < 10 | – | – | – |
| C[C@@]12CC[C@@H]3[C@@](CC[C@H]4[C@@]3(C)CCC[C@@]4(C)C(=O)OCC(=O)N3CCN(c4ccccc4)CC3)(CC1=O)C2 [Compound 2c, 2-oxo-2-(4-phenylpiperazin-1-yl)ethyl(4R,4aS,6aR,9S,11aR,11bS)-4,9,11b-trimethyl-8-oxotetradecahydro-6a,9-methanocyclohepta[a]naphthalene-4-carboxylate] | 40.5 ± 0.87 | 15.7 ± 0.61 | 143 to 144 | < 10 | – | – | – |
| O=c1[nH]cc(F)c(=O)[nH]1 [5-FU, 5-fluorouracil, reference compound] | – | – | – | – | 21.3 ± 2.43 | 24.8 ± 2.08 | 23.4 ± 0.37 |
| CCOP(=O)(OCC)C(NC(=O)COC(=O)[C@]1(C)CCC[C@@]2(C)[C@@H]3CC[C@@]4(C)C[C@]3(CC[C@@H]21)CC4=O)c1ccc(Cl)c(Cl)c1 (stereo partly drawn) [Compound 6e, 2-(((3,4-dichlorophenyl)(diethoxyphosphoryl)methyl)amino)-2-oxoethyl(4R,4aS,6aR,9S,11aR,11bS)-4,9,11b-trimethyl-8-oxotetradecahydro-6a,9-methanocyclohepta[a]naphthalene-4-carboxylate] | 49.9 ± 1.26 | 43.5 ± 0.56 | 168 to 169 | 39.5 ± 1.37 | – | – | – |
| C[C@@]12CC[C@@H]3[C@@](CC[C@H]4[C@@]3(C)CCC[C@@]4(C)C(=O)OCC(=O)Nc3ccccc3Cl)(CC1=O)C2 [Compound 4b, 2-((2-chlorophenyl)amino)-2-oxoethyl(4R,4aS,6aR,9S,11aR,11bS)-4,9,11b-trimethyl-8-oxotetradecahydro-6a,9-methanocyclohepta[a]naphthalene-4-carboxylate] | < 10 | < 10 | 107 to 108 | < 10 | – | – | – |
| C[C@@]12CC[C@@H]3[C@@](CC[C@H]4[C@@]3(C)CCC[C@@]4(C)C(=O)OCC(=O)Nc3ccc(F)cc3)(CC1=O)C2 [Compound 4g, 2-((4-fluorophenyl)amino)-2-oxoethyl(4R,4aS,6aR,9S,11aR,11bS)-4,9,11b-trimethyl-8-oxotetradecahydro-6a,9-methanocyclohepta[a]naphthalene-4-carboxylate] | 63 ± 2.13 | 65.6 ± 3.01 | 140 to 141 | 39.1 ± 1.13 | – | – | – |
| C[C@@]12CC[C@@H]3[C@@](CC[C@H]4[C@@]3(C)CCC[C@@]4(C)C(=O)NCCN3CCCC3)(CC1=O)C2 [Compound 1a, (4R,4aS,6aR,9S,11aR,11bS)-4,9,11b-trimethyl-8-oxo-N-(2-(pyrrolidin-1-yl)ethyl)tetradecahydro-6a,9-methanocyclohepta[a]naphthalene-4-carboxamide] | 87.1 ± 2.37 | 65.2 ± 2.52 | 136 to 137 | 66 ± 1.33 | – | – | – |
| COc1ccc(OC)c(NC(=O)COC(=O)[C@]2(C)CCC[C@@]3(C)[C@@H]4CC[C@@]5(C)C[C@]4(CC[C@@H]32)CC5=O)c1 [Compound 4j, 2-((2,5-dimethoxyphenyl)amino)-2-oxoethyl(4R,4aS,6aR,9S,11aR,11bS)-4,9,11b-trimethyl-8-oxotetradecahydro-6a,9-methanocyclohepta[a]naphthalene-4-carboxylate] | 31.3 ± 1.76 | < 10 | 166 to 168 | < 10 | – | – | – |
| CCOP(=O)(OCC)C(NC(=O)COC(=O)[C@]1(C)CCC[C@@]2(C)[C@@H]3CC[C@@]4(C)C[C@]3(CC[C@@H]21)CC4=O)c1ccc(Cl)cc1 (stereo partly drawn) [Compound 6b, 2-(((4-chlorophenyl)(diethoxyphosphoryl)methyl)amino)-2-oxoethyl(4R,4aS,6aR,9S,11aR,11bS)-4,9,11b-trimethyl-8-oxotetradecahydro-6a,9-methanocyclohepta[a]naphthalene-4-carboxylate] | 50.4 ± 1.63 | 50.3 ± 2.31 | 149 to 150 | 40.2 ± 2.56 | – | – | – |
| CN1CCN(C(=O)COC(=O)[C@]2(C)CCC[C@@]3(C)[C@@H]4CC[C@@]5(C)C[C@]4(CC[C@@H]32)CC5=O)CC1 [Compound 2a, 2-(4-methylpiperazin-1-yl)-2-oxoethyl(4R,4aS,6aR,9S,11aR,11bS)-4,9,11b-trimethyl-8-oxotetradecahydro-6a,9-methanocyclohepta[a]naphthalene-4-carboxylate] | 65 ± 2.62 | 62.1 ± 1.02 | 112 to 113 | 40.6 ± 0.7 | – | – | – |
| C[C@@]12CC[C@@H]3[C@@](CC[C@H]4[C@@]3(C)CCC[C@@]4(C)C(=O)OCC(=O)Nc3cccc(Cl)c3)(CC1=O)C2 [Compound 4c, 2-((3-chlorophenyl)amino)-2-oxoethyl(4R,4aS,6aR,9S,11aR,11bS)-4,9,11b-trimethyl-8-oxotetradecahydro-6a,9-methanocyclohepta[a]naphthalene-4-carboxylate] | 35.7 ± 2.56 | 62.3 ± 3.55 | 120 to 122 | < 10 | – | – | – |
| CCOP(=O)(OCC)C(NC(=O)COC(=O)[C@]1(C)CCC[C@@]2(C)[C@@H]3CC[C@@]4(C)C[C@]3(CC[C@@H]21)CC4=O)c1ccccc1 (stereo partly drawn) [Compound 6a, 2-(((diethoxyphosphoryl)(phenyl)methyl)amino)-2-oxoethyl(4R,4aS,6aR,9S,11aR,11bS)-4,9,11b-trimethyl-8-oxotetradecahydro-6a,9-methanocyclohepta[a]naphthalene-4-carboxylate] | 33.7 ± 0.91 | 50 ± 2.27 | 156 to 157 | 28 ± 0.99 | – | – | – |
| CON(C)C(=O)[C@]1(C)CCC[C@@]2(C)[C@@H]3CC[C@@]4(C)C[C@]3(CC[C@@H]21)CC4=O [Compound 1c, (4R,4aS,6aR,9S,11aR,11bS)-N-methoxy-N,4,9,11b-tetramethyl-8-oxotetradecahydro-6a,9-methanocyclohepta[a]naphthalene-4-carboxamide] | 31.3 ± 1.22 | < 10 | 144 to 145 | < 10 | – | – | – |
| C[C@@]12CC[C@@H]3[C@@](CC[C@H]4[C@@]3(C)CCC[C@@]4(C)C(=O)OCC(=O)Nc3ccc(Cl)cc3)(CC1=O)C2 [Compound 4d, 2-((4-chlorophenyl)amino)-2-oxoethyl(4R,4aS,6aR,9S,11aR,11bS)-4,9,11b-trimethyl-8-oxotetradecahydro-6a,9-methanocyclohepta[a]naphthalene-4-carboxylate] | 52.9 ± 2.11 | 56.9 ± 2.35 | 140 to 142 | 31.9 ± 1.31 | – | – | – |
| COc1ccc(NC(=O)COC(=O)[C@]2(C)CCC[C@@]3(C)[C@@H]4CC[C@@]5(C)C[C@]4(CC[C@@H]32)CC5=O)cc1 [Compound 4i, 2-((4-methoxyphenyl)amino)-2-oxoethyl(4R,4aS,6aR,9S,11aR,11bS)-4,9,11b-trimethyl-8-oxotetradecahydro-6a,9-methanocyclohepta[a]naphthalene-4-carboxylate] | 45.6 ± 1.47 | 53.1 ± 2.56 | 86 to 88 | < 10 | – | – | – |
